This passage reports melting point results from patent US7741346B2, “Angiogenesis inhibitor” (Santen Pharmaceutical Co., Ltd., priority 2001, dated 2010).

In general, melting point refers to the temperature of the solid-liquid transition.

Turning to `O=C(NCCCc1ccncc1)N(C1CCCCC1)C1CCCCC1` [Compound No. 1-61, 1,1-Dicyclohexyl-3-[3-(4-pyridyl)propyl]urea], the melting point was in the range of 143 to 145.5 °C.

Molecule `CCCCCNC(=O)N(CCCc1ccncc1)CCC12CC3CC(CC(C3)C1)C2` [Compound No. 1-66, 1-[2-(1-Adamantyl)ethyl]-3-pentyl-1-[3-(4-pyridyl)propyl]urea] registered a melting point of 47 to 50 °C.

`CC(C)N(CCC12CC3CC(CC(C3)C1)C2)C(=O)NCCCc1ccncc1` [Compound No. 1-68, 1-[2-(1-Adamantyl)ethyl]-1-isopropyl-3-[3-(4-pyridyl)propyl]urea] returned a melting point of 132 to 134 °C.

The molecule `CC(C)(C)OC(=O)CCN(CCC12CC3CC(CC(C3)C1)C2)C(=O)NCCCc1ccncc1` [Compound No. 1-69, 1-[2-(1-Adamantyl)ethyl]-1-[2-(t-butoxycarbonyl)ethyl]-3-[3-(4-pyridyl)propyl]urea] showed a melting point of 124.5 to 127 °C.

`O=C(NCCCc1ccncc1)N(CCC12CC3CC(CC(C3)C1)C2)C1CCCC1` [Compound No. 1-70, 1-[2-(1-Adamantyl)ethyl]-1-cyclopentyl-3-[3-(4-pyridyl)propyl]urea] showed a melting point of 135.5 to 137.5 °C.

In turn, `CCCCCN(CCC12CC3CC(CC(C3)C1)C2)C(=O)NCc1ccccn1` [Compound No. 1-72, 1-[2-(1-Adamantyl)ethyl]-1-pentyl-3-(2-pyridyl)methylurea] returned a melting point of 87.5 to 92 °C.

Take `CCCCCN(CCC12CC3CC(CC(C3)C1)C2)C(=O)NCc1cccnc1` [Compound No. 1-73, 1-[2-(1-Adamantyl)ethyl]-1-pentyl-3-(3-pyridyl)methylurea]: the melting point was 88.5 to 101.5 °C.

The molecule `CCCCCN(CCC12CC3CC(CC(C3)C1)C2)C(=O)NCc1ccncc1` [Compound No. 1-74, 1-[2-(1-Adamantyl)ethyl]-1-pentyl-3-(4-pyridyl)methylurea] showed a melting point of 96.5 to 108 °C.

`CCCCCN(CCC12CC3CC(CC(C3)C1)C2)C(=O)NCCc1ccccn1` [Compound No. 1-75, 1-[2-(1-Adamantyl)ethyl]-1-pentyl-3-[2-(2-pyridyl)ethyl]urea]: the melting point was 80 to 100 °C.

As to `CCCCCN(CCC12CC3CC(CC(C3)C1)C2)C(=O)NCCc1cccnc1` [Compound No. 1-76, 1-[2-(1-Adamantyl)ethyl]-1-pentyl-3-[2-(3-pyridyl)ethyl]urea], the melting point is 112.5 to 114.5 °C.

The molecule `CCCCCN(CCC12CC3CC(CC(C3)C1)C2)C(=O)NCCc1ccncc1` [Compound No. 1-80, 1-[2-(1-Adamantyl)ethyl]-1-pentyl-3-[2-(4-pyridyl)ethyl]urea] yielded a melting point of 107 to 118 °C.

Regarding `CCCCCN(CCC12CC3CC(CC(C3)C1)C2)C(=O)NCCCc1ccccn1` [Compound No. 1-83, 1-[2-(1-Adamantyl)ethyl]-1-pentyl-3-[3-(2-pyridyl)propyl]urea], the melting point was 84.4 to 85.7 °C.

On to `CCCCCN(CCC12CC3CC(CC(C3)C1)C2)C(=O)NCCCc1cccnc1` [Compound No. 1-84, 1-[2-(1-Adamantyl)ethyl]-1-pentyl-3-[3-(3-pyridyl)propyl]urea], for which the melting point was 99.9 to 105.2 °C.

In turn, `CCCCCN(CCC12CC3CC(CC(C3)C1)C2)C(=O)NCCCCc1ccncc1` [Compound No. 1-87, 1-[2-(1-Adamantyl)ethyl]-1-pentyl-3-[4-(4-pyridyl)butyl]urea] had a melting point of 74.1 to 78.1 °C.

As to `CCCCCN(CCC12CC3CC(CC(C3)C1)C2)C(=O)NCCCc1ccnc2ccccc12` [Compound No. 1-91, 1-[2-(1-Adamantyl)ethyl]-1-pentyl-3-[3-(4-quinolyl)propyl]urea], the melting point lay in the range of 80.2 to 102 °C.

As to `O=C(NCCCc1ccncc1)N(CCCc1ccccc1)C(c1ccccc1)c1ccccc1` [Compound No. 1-93, 1-Diphenylmethyl-1-(3-phenylpropyl)-3-[3-(4-pyridyl)propyl]urea], the melting point lay within 123 to 124.8 °C.

With `CCCCCN(CCC12CC3CC(CC(C3)C1)C2)C(=O)NCCC(C)c1ccncc1` (stereo not drawn) [Compound No. 1-104, 1-[2-(1-Adamantyl)ethyl]-1-pentyl-3-[3-(4-pyridyl)butyl]urea], the melting point fell in the range of 93 to 98 °C.

`O=C(NCCCc1ccncc1)N(CCCC(F)(F)F)CCC12CC3CC(CC(C3)C1)C2` [Compound No. 1-105, 1-[2-(1-Adamantyl)ethyl]-3-[3-(4-pyridyl)propyl]-1-(4,4,4-trifluorobutyl)urea] had a melting point of 142.6 to 145 °C.

For the molecule `O=C(NCCCc1ccncc1)N(CCCCC(F)(F)F)CCC12CC3CC(CC(C3)C1)C2` [Compound No. 1-106, 1-[2-(1-Adamantyl)ethyl]-3-[3-(4-pyridyl)propyl]-1-(5,5,5-trifluoropentyl)urea], the melting point lay within 116.9 to 118.9 °C.

The molecule `CCCCCN(CCC12CC3CC(CC(C3)C1)C2)C(=O)NCC(CC)Cc1ccncc1` (stereo not drawn) [Compound No. 1-108, 1-[2-(1-Adamantyl)ethyl]-1-pentyl-3-[2-(4-pyridylmethyl)butyl]urea] had a melting point of 72 to 77 °C.

For the molecule `CCCCCN(CCC12CC3CC(CC(C3)C1)C2)C(=O)NCC(Cc1ccccc1)Cc1ccncc1` (stereo not drawn) [Compound No. 1-109, 1-[2-(1-Adamantyl)ethyl]-3-[2-benzyl-3-(4-pyridyl)propyl]-1-pentylurea], the melting point lay within 111 to 116 °C.

`CCCCCN(CCC12CC3CC(CC(C3)C1)C2)C(=O)NCC(Cc1ccncc1)Cc1ccncc1` [Compound No. 1-110, 1-[2-(1-Adamantyl)ethyl]-3-[2,2-bis(4-pyridylmethyl)ethyl]-1-pentylurea]: the melting point fell in the range of 124 to 136 °C.

The molecule `O=C(NCCCc1ccncc1)N(CCC12CC3CC(CC(C3)C1)C2)CC(F)(F)F` [Compound No. 1-114, 1-[2-(1-Adamantyl)ethyl]-3-[3-(4-pyridyl)propyl]-1-(2,2,2-trifluoroethyl)urea] displayed a melting point of 106.2 to 107.3 °C.

`CCCCCN(CCc1ccccc1)C(=O)NCC(C)Cc1ccncc1` (stereo not drawn) [Compound No. 1-115, 3-[2-Methyl-3-(4-pyridyl)propyl]-1-pentyl-1-phenethylurea] showed a melting point of 49 to 50 °C.

In turn, `CC(CNC(=O)N(CCC(F)(F)F)CCC12CC3CC(CC(C3)C1)C2)Cc1ccncc1` (stereo not drawn) [Compound No. 1-117, 1-[2-(1-Adamantyl)ethyl]-3-[2-methyl-3-(4-pyridyl)propyl]-1-(3,3,3-trifluoropropyl)urea] gave a melting point of 81.1 to 84.1 °C.

In turn, `CCCCN(CCCC12CC3CC(CC(C3)C1)C2)C(=O)NCCCc1ccncc1` [Compound No. 1-122, 1-[3-(1-Adamantyl)propyl]-1-butyl-3-[3-(4-pyridyl)propyl]urea] gave a melting point of 79.8 to 80.4 °C.

Regarding `O=C(NCCCc1ccncc1)N(CCCC12CC3CC(CC(C3)C1)C2)CC(F)(F)F` [Compound No. 1-123, 1-[3-(1-Adamantyl)propyl]-3-[3-(4-pyridyl)propyl]-1-(2,2,2-trifluoroethyl)urea], the melting point was 88.9 to 90 °C.

In turn, `CCN(CCCCC12CC3CC(CC(C3)C1)C2)C(=O)NCCCc1ccncc1` [Compound No. 1-124, 1-[4-(1-Adamantyl)butyl]-1-ethyl-3-[3-(4-pyridyl)propyl]urea] showed a melting point of 92.7 to 93.7 °C.

As to `CCCN(CCCCC12CC3CC(CC(C3)C1)C2)C(=O)NCCCc1ccncc1` [Compound No. 1-125, 1-[4-(1-Adamantyl)butyl]-1-propyl-3-[3-(4-pyridyl)propyl]urea], the melting point fell in the range of 110 to 110.5 °C.

Turning to `CCCCCN(CCC12CC3CC(CC(C3)C1)C2)C(=O)NCCNc1ccncc1` [Compound No. 1-126, 1-[2-(1-Adamantyl)ethyl]-1-pentyl-3-[2-(4-pyridylamino)ethyl]urea], the melting point is 133.9 to 134.5 °C.

In the case of `CCCN(CCCC12CC3CC(CC(C3)C1)C2)C(=O)NCc1ccncc1` [Compound No. 1-128, 1-[3-(1-Adamantyl)propyl]-1-propyl-3-(4-pyridyl)methylurea], the melting point is 96 to 98 °C.

For the molecule `CCN(CCCC12CC3CC(CC(C3)C1)C2)C(=O)NCCCc1ccncc1` [Compound No. 1-130, 1-[3-(1-Adamantyl)propyl]-1-ethyl-3-[3-(4-pyridyl)propyl]urea], the melting point fell in the range of 97.5 to 98.2 °C.

For `CCCN(CC(=O)NC12CC3CC(CC(C3)C1)C2)C(=O)NCCCc1ccncc1` [Compound No. 1-132, 1-(1-Adamantyl)aminocarbonylmethyl-1-propyl-3-[3-(4-pyridyl)propyl]urea], the melting point was in the range of 132 to 132.5 °C.

`CCCCCN(CCC12CC3CC(CC(C3)C1)C2)C(=O)NCC(C)(C)Cc1ccncc1` [Compound No. 1-135, 1-[2-(1-Adamantyl)ethyl]-3-[2,2-dimethyl-3-(4-pyridyl)propyl]-1-pentylurea] had a melting point of 82.5 to 84.9 °C.

Take `CCCCCN(CCC12CC3CC(CC(C3)C1)C2)C(=O)NCCCc1cc[n+](C)cc1.[I-]` [Compound No. 4-1, 4-[3-[3-[2-(1-Adamantyl)ethyl]-3-pentylureido]propyl]-1-methylpyridinium iodide]: the melting point fell in the range of 168 to 171 °C.

Take `OCCN(CCc1ccccc1)C(=S)NCCCc1ccncc1` [Compound No. 7-2, 1-(2-Hydroxyethyl)-1-phenethyl-3-[3-(4-pyridyl)propyl]thiourea]: the melting point is 105.6 to 107.1 °C.

`S=C1N(CCCc2ccncc2)CCN1CCc1ccccc1` [Compound No. 8-1, 1-Phenethyl-3-[3-(4-pyridyl)propyl]-2-imidazolidinethione] registered a melting point of 99.5 to 104 °C.

Turning to `CC(=O)NN(CCC12CC3CC(CC(C3)C1)C2)C(=O)NCCCc1ccncc1` [Compound No. 10-1, 1-Acetylamino-1-[2-(1-adamantyl)ethyl]-3-[3-(4-pyridyl)propyl]urea], the melting point lay within 140 to 146 °C.

`CN(CCN(CCC12CC3CC(CC(C3)C1)C2)C(=O)NCCCc1ccncc1)S(C)(=O)=O` [Compound No. 10-4, 1-[2-(1-Adamantyl)ethyl]-1-[2-[N-methyl-N-(methylsulfonyl)amino]ethyl]-3-[3-(4-pyridyl)propyl]urea] gave a melting point of 164.9 to 167.2 °C.
